Source: ChEMBL document CHEMBL5154681, “Small Amphiphilic Peptides: Activity Against a Broad Range of Drug-Resistant Bacteria and Structural Insight into Membranolytic Properties” (J Med Chem, 2022)
≈ marks a conversion by molar mass, not a printed value. Calls of active or inactive are those of the source. The rule behind the calls is not given here. Bridge positions count the residues as written; N and C are the ends. Square brackets hold non-standard residues; d marks the D form. Peptide text beside a SMILES is read from it. * marks the point of attachment. Dip = N[C@H](C(=O)O)C(c1ccccc1)c1ccccc1; X1 = CC[C@H](C)CCCCC(=O)*; Dab = NCC[C@H](N)C(=O)O

Assays:
Staphylococcus aureus [1] = test: Antibacterial activity against methicillin resistant Staphylococcus aureus ATCC BAA-1556 incubated for 24 hrs by microtiter plate method; format: functional; conditions: Staphylococcus aureus, ATCC BAA-1556, 24 h, read-out: MIC
Staphylococcus aureus [2] = test: Antibacterial activity against Staphylococcus aureus ATCC 29213 incubated for 24 hrs by microtiter plate method; format: functional; conditions: Staphylococcus aureus, ATCC 29213, read-out: MIC
Enterococcus faecium [3] = test: Antibacterial activity against Enterococcus faecium ATCC 27270 incubated for 24 hrs by microtiter plate method; format: functional
Enterococcus faecium [4] = test: Antibacterial activity against vancomycin-resistant Enterococcus faecium ATCC 700221 incubated for 24 hrs by microtiter plate method; format: functional
Enterococcus faecalis [5] = test: Antibacterial activity against Enterococcus faecalis ATCC 29212 incubated for 24 hrs by microtiter plate method; format: functional
Enterococcus faecalis [6] = test: Antibacterial activity against vancomycin-resistant Enterococcus faecalis ATCC 51575 incubated for 24 hrs by microtiter plate method; format: functional
Streptococcus pneumoniae [7] = test: Antibacterial activity against […] ATCC 49619 incubated for 24 hrs by microtiter plate method; format: functional
Streptococcus pneumoniae [8] = test: Antibacterial activity against multidrug resistant […] ATCC 700677 incubated for 24 hrs by microtiter plate method; format: functional
Bacillus subtilis = test: Antibacterial activity against Bacillus subtilis ATCC 6633 incubated for 24 hrs by microtiter plate method; format: functional
Bacillus cereus = test: Antibacterial activity against Bacillus cereus ATCC 13061 incubated for 24 hrs by microtiter plate method; format: functional
Staphylococcus aureus [9] = test: Antibacterial activity against methicillin resistant Staphylococcus aureus ATCC BAA-1556 incubated for 24 hrs; format: functional
Staphylococcus aureus [10] = test: Antibacterial activity against methicillin resistant Staphylococcus aureus ATCC BAA-1556 after 24 hrs in presence of 150 mM of NaCl by microtiter plate method; format: functional
Staphylococcus aureus [11] = test: Antibacterial activity against methicillin resistant Staphylococcus aureus ATCC BAA-1556 after 24 hrs in presence of 4.5 mM of KCl by microtiter plate method; format: functional
Staphylococcus aureus [12] = test: Antibacterial activity against methicillin resistant Staphylococcus aureus ATCC BAA-1556 after 24 hrs in presence of 6 mM of NH4Cl by microtiter plate method; format: functional
Staphylococcus aureus [13] = test: Antibacterial activity against methicillin resistant Staphylococcus aureus ATCC BAA-1556 after 24 hrs in presence of 1 mM of by microtiter plate method; format: functional
Staphylococcus aureus [14] = test: Antibacterial activity against methicillin resistant Staphylococcus aureus ATCC BAA-1556 after 24 hrs in presence of 2 mM of CaCl2 by microtiter plate method; format: functional
Staphylococcus aureus [15] = test: Antibacterial activity against methicillin resistant Staphylococcus aureus ATCC BAA-1556 after 24 hrs in presence of fetal bovine serum by microtiter plate method; format: functional
Lipid bilayer [16] = test: Membrano-lytic effect in bacterial inner membrane mimic DOPC/DOPG (7:3) large unilamellar vesicles assessed as calcein leakage measured upto 100 mins for every 10 mins by multimode microplate reader assay; format: cell membranes; conditions: dose 5-50 µg/ml, DDE = dose-dependent effect
Escherichia coli [17] = test: Bactericidal activity against Escherichia coli ATCC BAA-2452 assessed as reduction of bacterial growth at 4 times MIC by counting formed colonies; format: functional, organism-based; conditions: time <= 4.0 hrs, TDE = time-dependent effect
Escherichia coli [18] = test: Bactericidal activity against Escherichia coli ATCC BAA-2452 assessed as reduction of bacterial growth at MIC by counting formed colonies; format: functional, organism-based; conditions: time <= 4.0 hrs, TDE = time-dependent effect
Staphylococcus aureus [19] = test: Bactericidal activity against methicillin resistant Staphylococcus aureus ATCC BAA-1556 assessed as reduction of bacterial growth at 4 times MIC by counting formed colonies; format: functional, organism-based; conditions: time <= 4.0 hrs, TDE = time-dependent effect
Staphylococcus aureus [20] = test: Bactericidal activity against methicillin resistant Staphylococcus aureus ATCC BAA-1556 assessed as reduction of bacterial growth at MIC by counting formed colonies; format: functional, organism-based; conditions: time <= 4.0 hrs, TDE = time-dependent effect
Staphylococcus aureus [21] = test: Bactericidal activity against methicillin resistant Staphylococcus aureus ATCC BAA-1556 assessed as time required for complete reduction of bacterial growth at MIC by counting formed colonies; format: functional
Staphylococcus aureus [22] = test: Bactericidal activity against methicillin resistant Staphylococcus aureus ATCC BAA-1556 assessed as time required for complete reduction of bacterial growth at 4 times MIC by counting formed colonies; format: functional
Lipid bilayer [23] = test: Membrano-lytic effect in mammalian membrane mimic DOPC/cholesterol (10:1) large unilamellar vesicles assessed as calcein leakage measured at 50 microg/ml measured upto 100 mins for every 10 mins by multimode microplate reader assay; format: cell membranes; conditions: dose 50.0 µg/ml
Lipid bilayer [24] = test: Membrano-lytic effect in bacterial inner membrane mimic DOPC/DOPG (7:3) large unilamellar vesicles assessed as calcein leakage measured at 50 microg/ml, incubated for 100 mins by multimode microplate reader assay; format: cell membranes; conditions: dose 50.0 µg/ml
Pseudomonas aeruginosa [25] = test: Antibacterial activity against Pseudomonas aeruginosa ATCC 27883 incubated for 24 hrs by microtiter plate method; format: functional; conditions: Pseudomonas aeruginosa
Escherichia coli [26] = test: Antibacterial activity against Escherichia coli ATCC 25922 incubated for 24 hrs by microtiter plate method; format: functional; conditions: Escherichia coli
Escherichia coli [27] = test: Antibacterial activity against Escherichia coli NDM-1-resistant ATCC BAA-2452 incubated for 24 hrs by microtiter plate method; format: functional
Klebsiella pneumoniae [28] = test: Antibacterial activity against Klebsiella pneumoniae ATCC 13883 […] incubated for 24 hrs by microtiter plate method; format: functional
Klebsiella pneumoniae [29] = test: Antibacterial activity against carbapenem-resistant Klebsiella pneumoniae ATCC BAA-2470 incubated for 24 hrs by microtiter plate method; format: functional
Acinetobacter baumannii = test: Antibacterial activity against ciprofloxacin resistance Acinetobacter baumannii ATCC BAA1605 incubated for 24 hrs by microtiter plate method; format: functional
Pseudomonas aeruginosa [30] = test: Antibacterial activity against Pseudomonas aeruginosa ATCC 10145 incubated for 24 hrs by microtiter plate method; format: functional
Pseudomonas aeruginosa [31] = test: Antibacterial activity against imipenem resistant Pseudomonas aeruginosa ATCC BAA-1744 incubated for 24 hrs by microtiter plate method; format: functional
Escherichia coli [32] = test: Antibacterial activity against Escherichia coli ATCC 25922 incubated for 24 hrs; format: functional
Escherichia coli [33] = test: Antibacterial activity against Escherichia coli ATCC 25922 after 24 hrs in presence of 150 mM NaCl by microtiter plate method; format: functional
Escherichia coli [34] = test: Antibacterial activity against Escherichia coli ATCC 25922 after 24 hrs in presence of 4.5 mM of KCl at by microtiter plate method; format: functional
Escherichia coli [35] = test: Antibacterial activity against Escherichia coli ATCC 25922 assessed as reduction in microbial growth after 24 hrs in presence of 6 mM of NH4Cl at by microtiter plate method; format: functional
Escherichia coli [36] = test: Antibacterial activity against Escherichia coli ATCC 25922 after 24 hrs in presence of 1 mM of MgCl2 at by microtiter plate method; format: functional
Escherichia coli [37] = test: Antibacterial activity against Escherichia coli ATCC 25922 after 24 hrs in presence of 2 mM CaCl2 at by microtiter plate method; format: functional
Escherichia coli [38] = test: Antibacterial activity against Escherichia coli ATCC 25922 after 24 hrs in presence of fetal bovine serum by microtiter plate method; format: functional
[39] = Hemolytic activity in human RBC assessed as hemolysis incubated for 2 hrs by spectrophotometer analysis; format: toxicity, cell-based, Erythrocyte; conditions: human red blood cells (erythrocytes)
[40] = Selectivity ratio of MIC for antibacterial activity against Klebsiella pneumoniae ATCC 13883 to MIC for antibacterial activity against carbapenem-resistant Klebsiella pneumoniae ATCC BAA-2470; format: functional
[41] = Selectivity ratio of MIC for antibacterial activity against Pseudomonas aeruginosa ATCC 10145 to MIC for antibacterial activity against imipenem-resistant Pseudomonas aeruginosa ATCC BAA-1744; format: functional

## CCCCCCCCCC(=O)N[C@@H](Cc1c[nH]c2ccccc12)C(=O)N[C@H](CC(N)=O)C(=O)N[C@@H](CC(=O)O)C(=O)N[C@@H]1C(=O)NCC(=O)N[C@@H](CCCN)C(=O)N[C@@H](CC(=O)O)C(=O)N[C@H](C)C(=O)N[C@@H](CC(=O)O)C(=O)NCC(=O)N[C@H](CO)C(=O)N[C@@H]([C@H](C)CC(=O)O)C(=O)N[C@@H](CC(=O)c2ccccc2N)C(=O)O[C@@H]1C
Staphylococcus aureus [1]
  MIC: 1.5 µg/mL (≈ 0.926 µM)
Staphylococcus aureus [2]
  MIC: 0.7 µg/mL (≈ 0.432 µM)
Enterococcus faecium [3]
  MIC: 1.5 µg/mL (≈ 0.926 µM)
Enterococcus faecium [4]
  MIC: 6.25 µg/mL (≈ 3.86 µM)
Enterococcus faecalis [5]
  MIC: 6.25 µg/mL (≈ 3.86 µM)
Enterococcus faecalis [6]
  MIC: 12.5 µg/mL (≈ 7.71 µM)
Streptococcus pneumoniae [7]
  MIC: 12.5 µg/mL (≈ 7.71 µM)
Streptococcus pneumoniae [8]
  MIC: 12.5 µg/mL (≈ 7.71 µM)
Bacillus subtilis
  MIC: 0.7 µg/mL (≈ 0.432 µM)
Bacillus cereus
  MIC: 1.5 µg/mL (≈ 0.926 µM)
Staphylococcus aureus [9]
  MBC: 6.2 µg/mL (≈ 3.83 µM)
Staphylococcus aureus [10]
  MIC: 0.7 µg/mL
Staphylococcus aureus [11]
  MIC: 1.5 µg/mL
Staphylococcus aureus [12]
  MIC: 1.5 µg/mL
Staphylococcus aureus [13]
  MIC: 3.1 µg/mL
Staphylococcus aureus [14]
  MIC: 3.1 µg/mL
Staphylococcus aureus [15]
  MIC: 3.1 µg/mL
Lipid bilayer [16]
  Activity: Dde
Escherichia coli [17]
  Activity: Tde
Escherichia coli [18]
  Activity: Tde
Staphylococcus aureus [19]
  Activity: Tde
Staphylococcus aureus [20]
  Activity: Tde
Staphylococcus aureus [21]
  Activity: Active
Staphylococcus aureus [22]
  Activity: Active
Lipid bilayer [23]
  Activity: 5%
Lipid bilayer [24]
  Activity: 27%

## CC[C@H](C)CCCCC(=O)N[C@@H](CCN)C(=O)N[C@H](C(=O)N[C@@H](CCN)C(=O)N[C@H]1CCNC(=O)[C@H]([C@@H](C)O)NC(=O)[C@H](CCN)NC(=O)[C@H](CCN)NC(=O)[C@H](CC(C)C)NC(=O)[C@@H](Cc2ccccc2)NC(=O)[C@H](CCN)NC1=O)[C@@H](C)O (X1-[Dab]T[Dab][Dab][Dab][dF]L[Dab][Dab]T; lactam 4-C)
Staphylococcus aureus [2]
  MIC: 0.7 µg/mL (≈ 0.582 µM)
Pseudomonas aeruginosa [25]; ATCC 27883, read-out: MIC
  MIC: 0.7 µg/mL (≈ 0.582 µM)
Escherichia coli [26]; ATCC 25922, read-out: MIC
  MIC: 0.7 µg/mL (≈ 0.582 µM)
Escherichia coli [27]
  MIC: 0.7 µg/mL (≈ 0.582 µM)
Klebsiella pneumoniae [28]
  MIC: 6.2 µg/mL (≈ 5.15 µM)
Klebsiella pneumoniae [29]
  MIC: 1.5 µg/mL (≈ 1.25 µM)
Acinetobacter baumannii
  MIC: 0.7 µg/mL (≈ 0.582 µM)
Pseudomonas aeruginosa [30]
  MIC: 0.7 µg/mL (≈ 0.582 µM)
Pseudomonas aeruginosa [31]
  MIC: 0.7 µg/mL (≈ 0.582 µM)
Escherichia coli [32]
  MBC: 3.1 µg/mL (≈ 2.58 µM)
Escherichia coli [33]
  MIC: 0.7 µg/mL
Escherichia coli [34]
  MIC: 0.7 µg/mL
Escherichia coli [35]
  MIC: 0.7 µg/mL
Escherichia coli [36]
  MIC: 1.5 µg/mL
Escherichia coli [37]
  MIC: 0.7 µg/mL
Escherichia coli [38]
  MIC: 3.1 µg/mL
Escherichia coli [17]
  Activity: Tde
Escherichia coli [18]
  Activity: Tde
Staphylococcus aureus [19]
  Activity: Tde
Staphylococcus aureus [20]
  Activity: Tde
Staphylococcus aureus [21]
  Activity: Active
Staphylococcus aureus [22]
  Activity: Active

## N=C(N)NCCC[C@@H]1NC(=O)[C@H](CCCNC(=N)N)NC(=O)[C@H](C(c2ccccc2)c2ccccc2)NC(=O)[C@H](C(c2ccccc2)c2ccccc2)NC(=O)[C@H](C(c2ccccc2)c2ccccc2)NC(=O)[C@H](CCCNC(=N)N)NC1=O (cyclo([Dip][Dip][Dip]RRR))
[39]
  HC50 at 2 h: 45 µg/mL
Staphylococcus aureus [1]
  MIC: 3.1 µg/mL (≈ 2.72 µM)
Staphylococcus aureus [2]
  MIC: 3.1 µg/mL (≈ 2.72 µM)
Pseudomonas aeruginosa [25]; ATCC 27883, 24 h, read-out: MIC
  MIC: 12.5 µg/mL (≈ 11 µM)
Escherichia coli [26]; ATCC 25922, 24 h, read-out: MIC
  MIC: 12.5 µg/mL (≈ 11 µM)
Enterococcus faecium [3]
  MIC: 3.1 µg/mL (≈ 2.72 µM)
Enterococcus faecium [4]
  MIC: 6.2 µg/mL (≈ 5.45 µM)
Enterococcus faecalis [5]
  MIC: 12.5 µg/mL (≈ 11 µM)
Enterococcus faecalis [6]
  MIC: 12.5 µg/mL (≈ 11 µM)
Streptococcus pneumoniae [7]
  MIC: 50 µg/mL (≈ 43.9 µM)
Streptococcus pneumoniae [8]
  MIC: 25 µg/mL (≈ 22 µM)
Bacillus subtilis
  MIC: 3.1 µg/mL (≈ 2.72 µM)
Bacillus cereus
  MIC: 6.2 µg/mL (≈ 5.45 µM)
Escherichia coli [27]
  MIC: 25 µg/mL (≈ 22 µM)
Klebsiella pneumoniae [28]
  MIC: > 50 µg/mL
Klebsiella pneumoniae [29]
  MIC: 12.5 µg/mL (≈ 11 µM)
Acinetobacter baumannii
  MIC: 25 µg/mL (≈ 22 µM)
Pseudomonas aeruginosa [30]
  MIC: 50 µg/mL (≈ 43.9 µM)
Pseudomonas aeruginosa [31]
  MIC: 25 µg/mL (≈ 22 µM)
[40]
  Ratio: 2
[41]
  Ratio: 2
